The source made the active and inactive calls.
Legend:
[1] = biological target: T1, Polyadenylate-binding protein 1 (Homo sapiens, UniProt P11940); test: PABP1 MLLE–PAM2 binding inhibitor potency, dose response, biochemical, fluorescence polarization, FITC-PAM2 peptide (AID 602259); format: functional; settings: read-out: IC50_Mean
[2] = THP-1 cell cytotoxicity, dose response, cytotoxicity control for Vif-APOBEC3G degradation inhibitor project, THP-1 cells (AID 1117359); format: functional; settings: Human immunodeficiency virus 1, THP-1
[3] = biological target: Beta-galactosidase (Escherichia coli, UniProt Q8VNN2); test: beta-galactosidase enzyme inhibitors and activators, dose response, artefact control for CCR6 antagonist project, biochemical, E. coli enzyme, set 3 (AID 504712); format: functional
[4] = human group III sPLA2 inhibitors, dose response, biochemical, QFRET, IC50 (AID 743457);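 further: green fluorescence rise as the enzyme cleaves BODIPY PC-A2 in liposomes; potency for inhibition of the enzyme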
[5] = biological target: T1, Polyadenylate-binding protein 1; test: PABP1 MLLE–PAM2 interaction inhibitors, dose response, miRNA deadenylation inhibitor project, biochemical, fluorescence polarization, Cy5-PAM2 peptide, secondary (AID 602260); format: functional; settings: read-out: IC50_Mean
[6] = biological target: Eukaryotic translation initiation factor 4E (Mus musculus, UniProt P63073); test: eIF4E–eIF4G protein interaction inhibitors, dose response, biochemical, TR-FRET (AID 855); format: functional;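 further: potency for disrupting eIF4E binding to eIF4GI seen as loss of FRET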
[7] = biological target: T2, Hexokinase HKDC1 (Homo sapiens, UniProt Q2TB90); test: HKDC1 hexokinase inhibitors, dose response, biochemical, W721R variant (AID 504729); format: functional
T2 sequence (Q2TB90 whole entry): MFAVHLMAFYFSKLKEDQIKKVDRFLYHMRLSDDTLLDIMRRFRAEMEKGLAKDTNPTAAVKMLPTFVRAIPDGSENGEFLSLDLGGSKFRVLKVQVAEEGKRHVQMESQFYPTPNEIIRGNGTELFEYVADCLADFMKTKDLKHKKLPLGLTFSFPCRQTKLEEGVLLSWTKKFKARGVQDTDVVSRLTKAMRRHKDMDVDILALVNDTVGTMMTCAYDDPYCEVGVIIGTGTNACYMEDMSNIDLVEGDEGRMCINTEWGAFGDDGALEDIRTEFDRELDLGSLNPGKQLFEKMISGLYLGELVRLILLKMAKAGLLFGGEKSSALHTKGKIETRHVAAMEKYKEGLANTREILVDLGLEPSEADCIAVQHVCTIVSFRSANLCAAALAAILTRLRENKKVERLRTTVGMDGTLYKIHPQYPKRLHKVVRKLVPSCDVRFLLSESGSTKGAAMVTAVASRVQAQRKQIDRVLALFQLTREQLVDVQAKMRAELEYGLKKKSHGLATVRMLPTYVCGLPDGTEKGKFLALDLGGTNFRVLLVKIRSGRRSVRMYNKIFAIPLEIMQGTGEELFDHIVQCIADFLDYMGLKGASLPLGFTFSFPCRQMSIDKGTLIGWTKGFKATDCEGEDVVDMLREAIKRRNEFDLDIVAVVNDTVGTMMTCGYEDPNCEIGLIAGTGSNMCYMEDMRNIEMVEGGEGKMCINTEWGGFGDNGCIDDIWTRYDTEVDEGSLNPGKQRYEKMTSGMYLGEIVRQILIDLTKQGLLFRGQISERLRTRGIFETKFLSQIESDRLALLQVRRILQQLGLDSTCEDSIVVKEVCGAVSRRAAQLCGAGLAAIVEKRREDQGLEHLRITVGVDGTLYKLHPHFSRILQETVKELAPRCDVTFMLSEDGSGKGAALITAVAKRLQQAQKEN

[8] = THP-1 cell cytotoxicity, dose response, cytotoxicity control for non-replicating M. tuberculosis project (AID 489025); format: functional
[9] = biological target: Induced myeloid leukemia cell differentiation protein Mcl-1 (Homo sapiens, UniProt Q07820); format: functional
[10] = biological target: Glucose-6-phosphate 1-dehydrogenase (Homo sapiens, UniProt P11413); test: human G6PD enzyme inhibitors, dose response, selectivity assay for P. falciparum G6PD inhibitor project, biochemical, fluorescence (AID 504792); format: functional
[11] = biological target: C-C chemokine receptor type 6 (Homo sapiens, UniProt P51684); test: CCR6 receptor antagonists, dose response, cell-based, luminescent beta-arrestin readout (AID 504728); format: functional
[12] = biological target: Envelope glycoprotein gp160 (Human immunodeficiency virus 1, UniProt Q6QLK5); test: inhibitors of HIV fusion peptide binding, primary screen, biochemical, uHTS, fluorescence dequenching (AID 1986)
[13] = biological target: T3, Serine/threonine-protein phosphatase (Candida dubliniensis (strain CD36 / CBS 7987 / NCPF 3949 / NRRLY-17841) (Yeast), UniProt B9W6M3); test: calcineurin pathway inhibitors in yeast reporter, dose response, S. cerevisiae, CDRE-lacZ, luminescence, secondary (AID 2388); format: functional, cell-based;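 further: yeast reporter cells carrying a calcineurin-responsive lacZ construct stimulated with calcium chloride; luminescent beta-galactosidase reporter signal in whole cells rather than isolated phosphatase activity; potency for inhibition where a drop in reporter signal means calcineurin blockade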
T3 sequence (B9W6M3 whole entry): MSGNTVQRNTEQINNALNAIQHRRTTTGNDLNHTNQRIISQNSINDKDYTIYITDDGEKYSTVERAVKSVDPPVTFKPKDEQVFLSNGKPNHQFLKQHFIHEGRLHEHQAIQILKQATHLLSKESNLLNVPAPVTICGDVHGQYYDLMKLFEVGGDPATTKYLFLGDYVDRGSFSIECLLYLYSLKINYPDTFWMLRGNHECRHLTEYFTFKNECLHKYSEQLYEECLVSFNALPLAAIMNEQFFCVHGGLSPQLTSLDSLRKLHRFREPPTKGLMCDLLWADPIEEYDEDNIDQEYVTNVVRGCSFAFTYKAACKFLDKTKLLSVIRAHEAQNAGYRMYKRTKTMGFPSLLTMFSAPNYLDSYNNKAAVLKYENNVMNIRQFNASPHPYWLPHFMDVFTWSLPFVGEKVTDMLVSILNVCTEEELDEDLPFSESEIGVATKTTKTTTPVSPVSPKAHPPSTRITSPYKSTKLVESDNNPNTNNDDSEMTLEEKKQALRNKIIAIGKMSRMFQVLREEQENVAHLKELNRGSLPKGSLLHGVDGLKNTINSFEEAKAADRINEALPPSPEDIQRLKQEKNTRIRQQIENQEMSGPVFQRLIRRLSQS

[14] = biological target: ATP-dependent molecular chaperone HSP82 (Candida albicans (strain WO-1) (Yeast), UniProt C4YTQ8); test: loss of DOC-induced GRE-beta-galactosidase reporter signal, dose response, Hsp90 inhibitor project, S. cerevisiae, luminescence (AID 2400); format: functional, cell-based;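 further: beta-galactosidase luminescence from glucocorticoid response element reporter as proxy for Hsp90 function; inhibitor potency where signal loss means Hsp90 inhibition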
[15] = NIH-3T3 fibroblast cytotoxicity, dose response, cytotoxicity control, cell-based, fluorescence, Alamar Blue, secondary assay (AID 2327); format: functional;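 further: NIH-3T3 mouse fibroblasts cultured with fluconazole at 8 µg/mL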
[16] = C. albicans growth with fluconazole, confirmation, fluorescence, retest (AID 2467); format: functional, cell-based
[17] = biological target: T4, Tyrosine-protein phosphatase non-receptor type 22 (Homo sapiens, UniProt Q9Y2R2); test: SAR LYP1 Fluorescent Assay using OMFP substrate for In Vitro dose response studies - Set 4. [Related pubchem assays (depositor defined):AID1779, AID1784, AID2140, AID2686]; format: functional
T4 sequence (Q9Y2R2 whole entry): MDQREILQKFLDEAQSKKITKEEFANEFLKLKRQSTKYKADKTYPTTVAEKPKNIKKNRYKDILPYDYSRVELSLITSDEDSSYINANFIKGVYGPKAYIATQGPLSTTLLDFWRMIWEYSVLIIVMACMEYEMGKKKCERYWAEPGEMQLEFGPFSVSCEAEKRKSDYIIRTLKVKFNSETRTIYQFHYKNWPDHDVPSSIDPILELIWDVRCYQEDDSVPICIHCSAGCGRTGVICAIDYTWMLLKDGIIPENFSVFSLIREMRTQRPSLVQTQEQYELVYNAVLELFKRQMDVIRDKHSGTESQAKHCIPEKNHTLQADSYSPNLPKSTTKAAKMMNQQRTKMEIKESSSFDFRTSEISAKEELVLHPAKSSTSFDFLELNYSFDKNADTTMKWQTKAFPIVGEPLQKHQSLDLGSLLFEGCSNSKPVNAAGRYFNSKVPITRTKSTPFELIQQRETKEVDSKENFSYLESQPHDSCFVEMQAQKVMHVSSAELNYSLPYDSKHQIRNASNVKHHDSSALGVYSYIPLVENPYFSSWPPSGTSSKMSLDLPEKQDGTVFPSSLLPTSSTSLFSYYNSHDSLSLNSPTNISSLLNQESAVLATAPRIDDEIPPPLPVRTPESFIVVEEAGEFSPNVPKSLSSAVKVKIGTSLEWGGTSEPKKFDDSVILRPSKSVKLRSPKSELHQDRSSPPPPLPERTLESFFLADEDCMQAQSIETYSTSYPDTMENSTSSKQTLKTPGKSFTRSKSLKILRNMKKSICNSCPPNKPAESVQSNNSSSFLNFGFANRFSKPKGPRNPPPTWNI

[18] = biological target: T4, Tyrosine-protein phosphatase non-receptor type 22; test: SAR LYP1 Fluorescent Assay using pCAP substrate for In Vitro dose response studies - Set 4. [Related pubchem assays (depositor defined):AID1779, AID1784]; format: functional
[19] = biological target: Tyrosine-protein phosphatase non-receptor type 12 (Homo sapiens, UniProt Q05209); test: SAR Selectivity Analysis of small molecule inhibitors of PEST using pCAP in a fluorescence assay. [Related pubchem assays (depositor defined):AID1779, AID1784, AID2135]; format: functional
[20] = biological target: Caspase-7 (Homo sapiens, UniProt P55210); test: procaspase-7 activators, dose response, counter-screen for procaspase-3 activator project, biochemical, absorbance (AID 489013)
[21] = cytotoxicity toward NIH3T3 fibroblasts, dose response, counter-screen, cell-based, ATP luminescence, mouse fibroblasts (AID 2010); format: functional;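 further: cells exposed to compound for about 90 hours before reading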
[22] = biological target: T5, Caspase-3 (Homo sapiens, UniProt P42574); test: procaspase-3 activators, dose response, biochemical, absorbance (AID 489014)
T5 sequence (P42574 whole entry): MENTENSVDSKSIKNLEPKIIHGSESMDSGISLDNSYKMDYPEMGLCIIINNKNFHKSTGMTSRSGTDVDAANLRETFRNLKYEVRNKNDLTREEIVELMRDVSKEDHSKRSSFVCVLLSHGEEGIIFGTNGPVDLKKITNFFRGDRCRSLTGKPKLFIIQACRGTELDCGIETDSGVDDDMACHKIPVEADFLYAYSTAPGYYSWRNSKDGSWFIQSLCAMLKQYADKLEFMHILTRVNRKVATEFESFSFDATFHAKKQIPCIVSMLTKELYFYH

[23] = inhibitors of intracellular T. cruzi replication, confirmation, NIH3T3 host cells, beta-gal luminescence (AID 2044); format: functional, cell-based;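 further: intracellular parasites grown in NIH/3T3 mouse fibroblasts as host cells; luminescent beta-galactosidase reporter signal from transgenic T. cruzi replicating inside host cells; inhibitors lower the luminescence signal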
[24] = biological target: T6, Kappa-type opioid receptor (Homo sapiens, UniProt P41145); format: functional
[25] = biological target: T7, Mu-type opioid receptor (Homo sapiens, UniProt P35372); test: MOR agonists by imaging, SAR follow-up, image-based (AID 2352); format: functional
[26] = biological target: T8, Delta-type opioid receptor (Homo sapiens, UniProt P41143); test: DOR agonists, SAR follow-up, image-based (AID 2370); format: functional
[27] = biological target: T8, Delta-type opioid receptor; test: HTS Image-Based Screen for Agonists of the DOR Receptor. [Related pubchem assays (depositor defined):AID1777, AID1786, AID2133]; format: functional
[28] = biological target: T7, Mu-type opioid receptor; test: MOR antagonists, SAR follow-up, image-based (AID 2420); format: functional;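 further: compounds added before stimulation of receptor with agonist DAMGO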
[29] = biological target: T8, Delta-type opioid receptor; test: HTS Image-Based Screen for Antagonists of the DOR Receptor. [Related pubchem assays (depositor defined):AID1777, AID1785, AID1786, AID2133]; format: functional
[30] = biological target: T6, Kappa-type opioid receptor; format: functional; remark: listed apart in the source
[31] = biological target: T8, Delta-type opioid receptor; test: DOR antagonists, SAR follow-up, image-based (AID 2357); format: functional
[32] = biological target: T6, Kappa-type opioid receptor; test: KOR antagonists by imaging, SAR follow-up, image-based (AID 2348); format: functional
[33] = biological target: T7, Mu-type opioid receptor; test: HTS Image-Based Screen for Agonists of the MOR Receptor. [Related pubchem assays (depositor defined):AID1777, AID1785, AID1786, AID2133]; format: functional
[34] = HEp-2 cell cytotoxicity, dose response, cytotoxicity control for RSV inhibitor project, HTS (AID 2410); format: functional; settings: human respiratory syncytial virus

T6 sequence (P41145 whole entry): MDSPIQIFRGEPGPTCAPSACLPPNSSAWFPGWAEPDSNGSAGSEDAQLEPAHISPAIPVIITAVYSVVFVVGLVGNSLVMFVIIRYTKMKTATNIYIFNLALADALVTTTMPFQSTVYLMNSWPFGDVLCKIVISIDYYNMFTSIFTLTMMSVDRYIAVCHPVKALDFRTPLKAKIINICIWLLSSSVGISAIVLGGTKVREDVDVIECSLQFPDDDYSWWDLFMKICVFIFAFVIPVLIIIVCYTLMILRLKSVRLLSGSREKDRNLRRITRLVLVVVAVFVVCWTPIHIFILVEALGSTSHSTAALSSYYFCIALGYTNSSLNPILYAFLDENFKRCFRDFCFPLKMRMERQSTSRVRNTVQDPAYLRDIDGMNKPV
T7 sequence (P35372 whole entry): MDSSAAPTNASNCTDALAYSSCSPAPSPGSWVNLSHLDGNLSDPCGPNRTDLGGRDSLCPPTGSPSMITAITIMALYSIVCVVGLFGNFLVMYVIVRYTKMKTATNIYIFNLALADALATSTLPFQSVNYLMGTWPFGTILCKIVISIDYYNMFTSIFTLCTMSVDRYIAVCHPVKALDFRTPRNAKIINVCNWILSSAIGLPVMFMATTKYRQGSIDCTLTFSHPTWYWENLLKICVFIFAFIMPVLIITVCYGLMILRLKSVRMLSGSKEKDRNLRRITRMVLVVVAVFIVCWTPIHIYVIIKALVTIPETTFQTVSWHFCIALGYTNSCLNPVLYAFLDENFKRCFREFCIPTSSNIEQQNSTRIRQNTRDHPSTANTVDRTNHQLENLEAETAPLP
T8 sequence (P41143 whole entry): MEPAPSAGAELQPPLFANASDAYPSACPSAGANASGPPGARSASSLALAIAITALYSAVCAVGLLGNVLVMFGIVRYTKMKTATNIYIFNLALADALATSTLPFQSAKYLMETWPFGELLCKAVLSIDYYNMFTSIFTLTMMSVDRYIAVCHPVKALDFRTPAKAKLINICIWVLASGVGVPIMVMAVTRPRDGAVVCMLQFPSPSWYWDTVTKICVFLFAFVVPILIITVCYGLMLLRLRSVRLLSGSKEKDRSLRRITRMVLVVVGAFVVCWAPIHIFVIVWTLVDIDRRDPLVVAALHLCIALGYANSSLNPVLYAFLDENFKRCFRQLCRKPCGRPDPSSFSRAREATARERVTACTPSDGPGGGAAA
T1 sequence (P11940 whole entry): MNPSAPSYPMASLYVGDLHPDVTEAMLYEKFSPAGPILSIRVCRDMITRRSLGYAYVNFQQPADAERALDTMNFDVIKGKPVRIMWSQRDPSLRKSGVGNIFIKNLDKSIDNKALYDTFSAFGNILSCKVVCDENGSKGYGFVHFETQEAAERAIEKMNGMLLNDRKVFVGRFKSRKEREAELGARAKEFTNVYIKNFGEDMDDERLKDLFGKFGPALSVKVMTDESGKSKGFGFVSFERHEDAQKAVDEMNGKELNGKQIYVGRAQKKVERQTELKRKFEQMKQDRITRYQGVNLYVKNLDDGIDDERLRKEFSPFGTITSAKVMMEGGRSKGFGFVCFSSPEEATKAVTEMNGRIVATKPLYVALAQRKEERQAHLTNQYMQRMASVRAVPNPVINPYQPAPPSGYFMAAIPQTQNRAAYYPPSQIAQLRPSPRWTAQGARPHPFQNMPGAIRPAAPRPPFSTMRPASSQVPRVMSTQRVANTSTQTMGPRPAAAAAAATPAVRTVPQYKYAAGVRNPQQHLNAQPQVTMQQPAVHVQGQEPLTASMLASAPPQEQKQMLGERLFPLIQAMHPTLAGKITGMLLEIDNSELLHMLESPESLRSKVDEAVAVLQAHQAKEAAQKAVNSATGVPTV
Envelope glycoprotein gp160, sequence (Q6QLK5 whole entry, the tested form may be a part): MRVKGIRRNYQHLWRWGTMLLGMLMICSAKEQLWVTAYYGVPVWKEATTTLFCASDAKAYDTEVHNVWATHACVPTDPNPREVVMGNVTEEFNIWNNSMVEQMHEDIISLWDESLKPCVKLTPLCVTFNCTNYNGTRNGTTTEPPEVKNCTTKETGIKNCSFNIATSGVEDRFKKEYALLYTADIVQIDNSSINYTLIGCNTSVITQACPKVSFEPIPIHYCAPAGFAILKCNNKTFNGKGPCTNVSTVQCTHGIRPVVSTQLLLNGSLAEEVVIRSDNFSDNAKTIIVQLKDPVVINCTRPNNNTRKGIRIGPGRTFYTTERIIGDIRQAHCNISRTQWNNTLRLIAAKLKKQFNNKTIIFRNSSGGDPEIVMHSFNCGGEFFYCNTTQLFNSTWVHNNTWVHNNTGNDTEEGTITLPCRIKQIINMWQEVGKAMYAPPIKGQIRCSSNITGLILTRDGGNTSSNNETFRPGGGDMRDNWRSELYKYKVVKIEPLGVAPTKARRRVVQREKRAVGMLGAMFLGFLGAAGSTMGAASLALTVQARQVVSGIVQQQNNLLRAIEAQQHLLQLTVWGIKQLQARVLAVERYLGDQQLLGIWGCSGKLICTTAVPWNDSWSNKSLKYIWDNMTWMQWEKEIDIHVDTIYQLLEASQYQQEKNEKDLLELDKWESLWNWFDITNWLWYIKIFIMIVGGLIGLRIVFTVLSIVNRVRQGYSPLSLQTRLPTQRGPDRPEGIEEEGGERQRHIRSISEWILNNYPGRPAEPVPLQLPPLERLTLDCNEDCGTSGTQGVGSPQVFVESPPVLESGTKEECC
Tyrosine-protein phosphatase non-receptor type 12, sequence (Q05209 whole entry): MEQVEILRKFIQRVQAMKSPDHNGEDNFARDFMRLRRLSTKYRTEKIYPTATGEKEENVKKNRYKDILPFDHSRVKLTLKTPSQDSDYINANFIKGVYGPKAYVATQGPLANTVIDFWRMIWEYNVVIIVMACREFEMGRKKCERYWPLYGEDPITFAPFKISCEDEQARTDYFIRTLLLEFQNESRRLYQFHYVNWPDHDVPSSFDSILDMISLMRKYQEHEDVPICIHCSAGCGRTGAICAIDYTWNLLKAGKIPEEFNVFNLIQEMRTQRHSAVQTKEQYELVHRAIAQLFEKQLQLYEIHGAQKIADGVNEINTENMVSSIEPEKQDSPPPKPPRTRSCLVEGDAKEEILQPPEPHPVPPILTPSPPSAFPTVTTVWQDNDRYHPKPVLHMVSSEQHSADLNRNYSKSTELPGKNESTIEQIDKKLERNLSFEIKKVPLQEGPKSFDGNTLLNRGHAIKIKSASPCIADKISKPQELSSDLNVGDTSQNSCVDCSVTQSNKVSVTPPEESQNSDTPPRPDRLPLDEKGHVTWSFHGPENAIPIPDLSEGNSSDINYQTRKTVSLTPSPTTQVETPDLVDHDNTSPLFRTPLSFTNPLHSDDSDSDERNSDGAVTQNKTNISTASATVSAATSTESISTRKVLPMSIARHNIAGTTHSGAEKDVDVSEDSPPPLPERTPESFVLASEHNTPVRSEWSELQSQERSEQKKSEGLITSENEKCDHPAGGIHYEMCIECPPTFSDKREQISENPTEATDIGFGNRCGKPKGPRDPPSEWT
Beta-galactosidase, sequence (Q8VNN2 whole entry): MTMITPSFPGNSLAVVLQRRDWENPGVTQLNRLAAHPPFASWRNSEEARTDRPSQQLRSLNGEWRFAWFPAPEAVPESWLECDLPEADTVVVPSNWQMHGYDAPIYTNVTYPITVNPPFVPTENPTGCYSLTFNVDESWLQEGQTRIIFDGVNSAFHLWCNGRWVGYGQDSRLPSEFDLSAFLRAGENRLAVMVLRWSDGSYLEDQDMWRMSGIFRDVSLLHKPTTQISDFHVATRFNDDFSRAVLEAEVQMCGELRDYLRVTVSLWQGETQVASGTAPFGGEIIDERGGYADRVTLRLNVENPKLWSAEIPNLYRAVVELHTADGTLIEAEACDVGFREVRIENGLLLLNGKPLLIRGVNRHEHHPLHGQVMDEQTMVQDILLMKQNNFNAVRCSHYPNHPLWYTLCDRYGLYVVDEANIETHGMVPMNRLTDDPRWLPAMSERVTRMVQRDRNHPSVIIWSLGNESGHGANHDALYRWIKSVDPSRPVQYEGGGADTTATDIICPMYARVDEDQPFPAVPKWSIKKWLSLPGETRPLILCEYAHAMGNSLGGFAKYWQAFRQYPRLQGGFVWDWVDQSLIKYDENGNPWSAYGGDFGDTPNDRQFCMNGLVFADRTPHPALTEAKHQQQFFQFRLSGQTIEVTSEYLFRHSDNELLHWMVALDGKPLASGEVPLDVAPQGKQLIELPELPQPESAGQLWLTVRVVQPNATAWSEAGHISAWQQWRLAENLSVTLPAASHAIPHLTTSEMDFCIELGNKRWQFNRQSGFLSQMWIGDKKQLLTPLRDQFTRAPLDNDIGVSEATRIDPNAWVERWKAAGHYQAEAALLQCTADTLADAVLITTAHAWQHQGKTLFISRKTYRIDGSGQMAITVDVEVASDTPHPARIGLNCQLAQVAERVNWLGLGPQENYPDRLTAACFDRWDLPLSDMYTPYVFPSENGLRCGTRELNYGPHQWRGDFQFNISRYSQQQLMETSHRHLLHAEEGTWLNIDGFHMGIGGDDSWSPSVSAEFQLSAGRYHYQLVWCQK
Eukaryotic translation initiation factor 4E, sequence (P63073 whole entry): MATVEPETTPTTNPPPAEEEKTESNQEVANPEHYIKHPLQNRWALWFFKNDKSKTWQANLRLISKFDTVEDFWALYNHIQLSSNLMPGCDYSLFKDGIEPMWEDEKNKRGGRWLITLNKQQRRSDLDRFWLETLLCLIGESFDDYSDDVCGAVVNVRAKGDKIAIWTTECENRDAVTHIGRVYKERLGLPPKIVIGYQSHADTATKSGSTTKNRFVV
Induced myeloid leukemia cell differentiation protein Mcl-1, sequence (Q07820 whole entry): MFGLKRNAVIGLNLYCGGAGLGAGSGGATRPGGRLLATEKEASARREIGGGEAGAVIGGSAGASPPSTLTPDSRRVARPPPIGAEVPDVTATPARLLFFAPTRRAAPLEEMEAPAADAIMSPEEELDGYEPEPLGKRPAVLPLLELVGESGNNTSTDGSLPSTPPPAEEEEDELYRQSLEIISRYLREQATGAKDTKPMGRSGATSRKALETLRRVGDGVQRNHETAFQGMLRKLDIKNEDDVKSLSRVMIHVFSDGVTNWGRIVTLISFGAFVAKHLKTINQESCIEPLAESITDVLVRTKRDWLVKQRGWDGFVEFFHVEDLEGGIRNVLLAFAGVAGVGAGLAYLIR

For `CNCc1ccccc1Sc1cc(O)ccc1O`, the IC50 [1] was > 66 µM (inactive), the CC50 [2] was > 40 µM (active) and the IC50 [3] was > 66.6 µM (inactive). For the same molecule, the IC50 [4] was > 122 µM (inactive), the IC50 [5] was > 66 µM (inactive) and the IC50 [6] was > 64 µM (inactive). The IC50 [7] was 3.35 µM (active), the CC50 [8] was 38.8 µM (active) and the IC50 [9] was 4.5 µM (active). For the same molecule, the IC50 [10] was 26.9 µM (inactive) and the IC50 [11] was 23.5 µM (inactive).
For `CC(C)CCN1C(=O)c2ccc(C(=O)Nc3ccc(Br)cc3C(=O)O)cc2C1=O`, the IC50 [12] was > 99 µM (inactive), the EC50 [13] was > 180 µM (inactive) and the EC50 [14] was 15.6 µM (active). The EC50 [15] was > 160 µM (inactive) and the EC50 [16] was 2.46 µM (active).
With `CCOC(=O)COc1ccc(/C=N/NC(=O)c2ccc(-c3csc(Nc4ccc(Cl)cc4)n3)cc2)cc1` the IC50 [17] was 89 µM (active), the IC50 [18] was 60.8 µM (active) and the IC50 [19] was 37.4 µM (active).
With `Cc1ccc(C)c(N(CC(=O)Nc2ccc(-c3nc4ccc(C)cc4s3)cc2)S(C)(=O)=O)c1` the EC50 [20] was > 85.2 µM (inactive), the EC50 [21] was > 60 µM (inconclusive) and the EC50 [22] was > 85.2 µM (inactive). The EC50 [23] was 2.78 µM (active).
For `Clc1cccc(CSc2nnc(-c3ccccn3)n2Cc2ccco2)c1`, the EC50 [24] was 8.35 µM, the EC50 [25] was > 32 µM (inactive) and the EC50 [26] was > 32 µM (inactive). For the same molecule, the EC50 [27] was > 32 µM (inactive), the IC50 [28] was > 32 µM (inactive) and the IC50 [29] was > 32 µM (inactive). For the same molecule, the EC50 [30] was 5.6 µM, the IC50 [31] was > 32 µM (inactive) and the IC50 [32] was > 32 µM (inactive). For the same molecule, the EC50 [33] was > 32 µM (inactive) and the CC50 [34] was 15.1 µM (active).

From ChEMBL document CHEMBL1201862, “PubChem BioAssay data set” (2004)
